Assay results taken from US6956044B1, “Compositions and methods for treatment of epilepsy” (priority 2000, dated 2005).

Experiments:
Oral LD50 (Table 3) = type: in vivo
[1] = tested on: maximal electroshock seizures; experiment: Maximal electroshock seizure test; type: in vivo; details: albino mice, intraperitoneal, 140 minutes after injection of test compound
From the text: Effect Against Maximal Electroshock Seizures. […] Given intraperitoneally to albino mice these compounds have afforded complete protection from maximal electroshock seizures for several hours. To test the maximal seizure anticonvulsant properties in albino mice weighing approximately 25 grams, first an electrical current was delivered via cranial electrodes at a voltage strength which induced a typical maximal electroconvulsant seizure in all the mice. Maximal tonic electrochock seizures were induced with 2 to 7 milliamperes being discharged at 18 volts, and at a frequency of 1000 per second. Abolition of the hindlimb tonic extension component of the seizure was defined as protection in this maximal electroshock test (L. S. Goodman et al., Jour. Pharm. Exper. Therap., 108: 168, 1953). The apparatus used was structured so that the current administered was independent of external resistance. There were 10 animals per group, and they were exposed to electroshock seizures at 20, 80 and 140 minutes after injection of the test compounds. The mice received graded doses of the compounds, and the dose protecting 50% of the animals was calculated biometrically.

[2] = tested on: pentylenetetrazol-induced seizures; experiment: Pentylenetetrazol (Metrazol) seizure test; type: in vivo; details: pentylenetetrazol 120 mg/kg i.p. 30 minutes after compound
Procedure: Effect Against Pentylenetetrazol (Metrazol) Seizures. […] The pentylenetetrazol (metrazol), 120 mg/kg, was injected intraperitoneally 30 minutes after the oral administration of the respective graded doses of the compounds. Protection in this test was defined as a failure to detect even a single episode of clonic spasms of at least 5 seconds duration during a 30 minute period following the injection of the metrazol (F. M. Berger, 78:277, 1951). […] Exper. Med. Biol., against pentylenetetrazol seizures ([…] al., Epilepsia, 19: 193-408, 1978).

[3] = Intraperitoneal LD50 (Table 2); type: in vivo
[4] = tested on: cat soleus muscle nerve preparation; experiment: Cat soleus muscle nerve preparation, neuromuscular function; type: in vivo; details: for Single impulse transmission: cat soleus muscle nerve preparation
From the text: Pirfenidone: Effect on Neuromuscular Function of the Cat Soleus Muscle Nerve Preparation. […] The action resembles that of phenytoin (J. A. Wada, Arch. Neurol., 34: 389–395, 1977).

nerve after-discharge = experiment: After-discharge on electrical nerve stimulation (neuropharmacological tests in cat and frog); details: cat and frog demonstrations
From the text: However, the molecular mechanism of the anticonvulsant action within neuronal cells remains unknown.

[5] = tested on: Bullfrog sciatic nerve trunk (de-sheathed); experiment: Frog sciatic nerve trunk high frequency stimulation; details: 10 mM
From the text: Pirfenidone: Effect on Frog Sciatic Nerve Trunk High Frequency Stimulation. Bullfrog sciatic nerve trunk (de-sheathed) was stimulated with trains of pulses at 200 Hertz in order to see if pirfenidone affected the nerve's ability to conduct high frequency impulses. […] Drugs that cause “use-dependent” block (high frequency failure) are generally regarded as potential anti-epileptic drugs.

[6] = Plasma concentration after oral dosing in man; type: in vivo
Procedure: In laboratory animals or in man, pirfenidone is well absorbed after oral administration. Plasma pirfenidone concentrations in man peak 1 to 4 hours after dosing. Metabolically, first order kinetics prevail over a daily dose range of 1200 to 3600 milligrams of pirfenidone in divided dosage (t.i.d.). Pirfenidone is cleared primarily by hepatic metabolism (S. Giri et al., Amer. Thoracic Soc. International Conf., Apr. 24-29, 1998) mainly hydroxylation and conjugation, and excreted primarily in the urine. […] The highly rapid and efficient oral bioavailability of pirfenidone in humans contrasts with that of oral phenytoin. In man, absorption of phenytoin after oral ingestion is slow, often variable and can be incomplete so that peak or effective concentrations in plasma and tissues may be delayed for 3 or more hours (E. Perucca and […], “Handbook of Exper. Pharmacol.,” Vol. 74: 831-855, 1985, Springer-Verlag, Berlin.)

[7] = man; cited from earlier work
[8] = tested on: pentylenetetrazol-induced seizures; details: literature (Krall et al.); cited from earlier work

Row | SMILES | ORAL LD50 (Oral LD50 (Table 3)) | I.P. ED50 (dose protecting 50% of mice against maximal electroshock seizures) [1] | ORAL ED50 (dose protecting 50% of mice against pentylenetetrazol-induced seizures) [2] | I.P. LD50 [3] | Post-tetanic potentiation (PTP) ([4]; 50 mg/kg intravenously) | Single impulse transmission [4] | Block of the classical after-discharge when a nerve is electronically stimulated (nerve after-discharge) | Conduction of high frequency impulses (200 Hertz pulse trains) [5] | Local anesthesia in the nerve [5] | Time of peak plasma concentration after dosing [6] | Delay of peak or effective concentrations in plasma and tissues after oral ingestion [7] | Activity against pentylenetetrazol seizures [8]
1 | O=c1ccccn1-c1ccccc1 [1-phenyl-2-(1H)-pyridone, reference compound] | 540 ± 124 mg/kg | No Activity | No Activity | >500 mg/kg | – | – | – | – | – | – | – | –
2 | Cc1cccn(-c2ccccc2)c1=O [3-methyl-1-phenyl-2-(1H)-pyridone] | 650 ± 110 mg/kg | No Activity | No Activity | >500 mg/kg | – | – | – | – | – | – | – | –
3 | CCc1ccc(=O)n(-c2ccccc2)c1 [5-ethyl-1-phenyl-2-(1H)-pyridone] | 425 ± 48 mg/kg | 60 ± 10 mg/kg | 285 ± 29 mg/kg | 500 ± 61 mg/kg | – | – | – | – | – | – | – | –
4 | Cc1ccc(=O)n(-c2ccccc2)c1 [5-methyl-1-phenyl-2-(1H)-pyridone] | 610 ± 34 mg/kg | 85 ± 11 mg/kg | 325 ± 41 mg/kg | 600 ± 43 mg/kg | suppresses the post-tetanic potentiation | Neither pirfenidone nor phenytoin impair | completely block | caused definite high frequency failure | did not cause local anesthesia | 1 to 4 h | – | –
5 | O=C1NC(=O)C(c2ccccc2)(c2ccccc2)N1 [phenytoin (Dilantin), phenytoin, reference compound] | 490 ± 35 mg/kg | 50 ± 15 mg/kg | No Activity | 200 ± 45 mg/kg | – | Neither pirfenidone nor phenytoin impair | completely block | – | – | – | ≥ 3 h | inactive
